One data set concerns osteosarcoma. Put plainly: Scintigraphy in osteosarcoma model, ratio (Q) of count density in the tumor to that in the contralateral tibia. Particulars: 0.01 mg i.v., 9.25 MBq Tc-99m, 4 weeks after tumor implantation. The class given is in vivo, Sprague-Dawley rats. As for the experimental part: Tc-99m-HMPD was tested on the model of osteosarcoma in Sprague-Dawley rats. […] The investigation was carried out 4 weeks after tumor implantation on a total of 30 animals. 1. Investigation schedule:
Day 1 Tc-99m-MDP (reference substance)
Scintigraphy 1, 90 and 180 minutes after injection
Storage of the scintigraphic data for the evaluation 2. Evaluation
Measurement of whole-body activity from the scintigraphic data
Ratio (Q) of the count density per unit area in the tumor to that in the contralateral tibia
Comparison of the quotient QHMPD with that for the products QMDP and QDBA-MDP.

The test system of another data set is bone lesions. As to conditions: compared with DPD and MDP; cited from earlier work.
The conditions of data set [1]: in words, cited from earlier work.
The next data set relates to lesion / normal bone. In words: Ratio Q of Tc-99m uptake in a lesion to uptake in normal bone (own investigations). As to conditions: compared with A-EDP, DMA-MDP, EA-MDP, DEA-MDP; Q=(% Tc/g of lesion)/(% Tc/g of normal bone). Type of data set: in vivo. From the text:
Many investigations carried out to date have been devoted to the search for compounds having a more favorable uptake ratio between the lesion and normal skeleton.

Data set [2] in a line: Stability of Tc-99m-HMPD by gel chromatography on polyacrylamide gel (Bio Gel P-10), up to 24 h after preparation. Type of data set: physicochemical. As to conditions: for % Activity in the HMPD: eluent 0.9% NaCl. As for the experimental part:
The labeling yield of Tc-99m-HMPD was determined, and the purity and stability were tested, by thin-layer chromatographic methods, gel filtration and HPLC.
2. The stability for a period of up to 24 h after preparation was tested by gel chromatography on polyacrylamide gel (Bio Gel® P-10, manufactured by Bio-Rad, California, USA) using 0.9% NaC1 solution as eluent (FIG. 1). The proportion of the activity in the HMPD, that in the form of pertechnetate and that remaining on the column were measured (Table 1). The latter is greater than the proportion of ^99m -Tc^4+ because non-specific adsorption of technetium to the support material is always observed.

Data set [3] in a line: Organ distribution of Tc-99m-HMPD in the rat 2 h after injection as a function of the amount administered (Table 3). Type of data set: in vivo. Particulars: for Bladder + urine / Blood / Bone / Kidneys / Liver / Lung / Muscle / Stomach / Thyroid: i.v., 2 h. Here is the method: The product prepared as in Example 2 (pH=7) was used for the following experiment.
Organ distribution of Tc-99m-HMPD in the rat
(n = 3) 2 h after injection as a function of
the amount administered (mg) and as a % of the
injected dose per organ or tissue. The various
HMPD amounts were administered i.v. in 0.1 ml

For `CCCCN(CCCC)C(P(=O)(O)O)P(=O)(O)O` [DBA-MDP, N,N-dibutylaminomethanediphosphonic acid], the “Lesion quotient (Q)” value in the data set with osteosarcoma was 1.16. In addition, in the data set on bone lesions, the “accumulation in the lesions” value is listed as “distinctly higher”. The blood clearance result in data set [1] (current state of knowledge) is reported as “not optimal”. Besides, the bone/background ratio result in data set [1] was “relatively poor”. Besides, the “ratio Q for uptake of Tc-99m in a lesion vs normal bone” value in the data set with lesion / normal bone is reported as “by far the highest ratios Q”.
As for `O=P(O)(O)CP(=O)(O)O` [MDP, methanediphosphonic acid], in the data set with osteosarcoma, the “Lesion quotient (Q)” value was 1.0.
As for “1-hydroxy-3-methylphosphinico-1,1-propanediphosphonic acid [Tc-99m-HMPD]”, the “Lesion quotient (Q)” value with osteosarcoma worked out at 1.27. Besides, in data set [2] (5 min after preparation), the “% Tc-99m Residue on the column” value is on record as 6.8%, the “% Tc-99m as pertechnetate” value came out at 0.6% and the “% Activity in the HMPD” value turned out to be 92.6%. Further, in data set [2] (2 h after preparation), the “% Tc-99m Residue on the column” value amounted to 7.5%, the “% Tc-99m as pertechnetate” value is 0.4% and the “% Activity in the HMPD” value was 92.1%. Further, in data set [2] (7 h after preparation), the “% Tc-99m Residue on the column” value worked out at 4.6%, the “% Tc-99m as pertechnetate” value is reported as 0.4% and the “% Activity in the HMPD” value is on record as 95.0%. Further, in data set [2] (24 h after preparation), the “% Tc-99m Residue on the column” value is listed as 5.2%, the “% Tc-99m as pertechnetate” value worked out at 0.8% and the “% Activity in the HMPD” value is 94.0%. The product stability entry in data set [2] (summary in words) is recorded as “stable for a whole working day”. Further, in data set [2] (up to 24 h after preparation), the “proportion of Tc-99m activity present in the HMPD” value was “more than 90%”. In data set [3] (0.001 mg), the “Bladder + urine” value was 54.1 % of the injected dose per org, the Blood is reported as 0.7 % of the injected dose per org, the Bone is on record as 32.9 % of the injected dose per org and the Kidneys is 1.51 % of the injected dose per org. Also, in data set [3] (0.001 mg), the Liver is 0.27 % of the injected dose per org, the Lung is 0.080 % of the injected dose per org, the Muscle was 0.8 % of the injected dose per org and the Stomach was 0.151 % of the injected dose per org. Moreover, the Thyroid in data set [3] (0.001 mg) is reported as 0.008 % of the injected dose per org. For the same molecule, in data set [3] (0.01 mg), the “Bladder + urine” value is 55.6 % of the injected dose per org, the Blood is listed as 0.4 % of the injected dose per org, the Bone was 34.7 % of the injected dose per org and the Kidneys is 1.05 % of the injected dose per org. In addition, in data set [3] (0.01 mg), the Liver was 0.18 % of the injected dose per org, the Lung is recorded as 0.048 % of the injected dose per org, the Muscle was 0.6 % of the injected dose per org and the Stomach is reported as 0.091 % of the injected dose per org. Also, in data set [3] (0.01 mg), the Thyroid is reported as 0.008 % of the injected dose per org. In data set [3] (0.1 mg), the “Bladder + urine” value is recorded as 56.9 % of the injected dose per org, the Blood is recorded as 0.4 % of the injected dose per org, the Bone is listed as 32.6 % of the injected dose per org and the Kidneys is 0.94 % of the injected dose per org. Moreover, in data set [3] (0.1 mg), the Liver was 0.17 % of the injected dose per org, the Lung is 0.480 % of the injected dose per org, the Muscle is on record as 0.6 % of the injected dose per org and the Stomach is 0.092 % of the injected dose per org. Further, the Thyroid in data set [3] (0.1 mg) is on record as 0.011 % of the injected dose per org. Also, in data set [3] (1 mg), the “Bladder + urine” value is 59.1 % of the injected dose per org, the Blood is listed as 0.8 % of the injected dose per org, the Bone was 28.7 % of the injected dose per org and the Kidneys is given as 1.03 % of the injected dose per org. In data set [3] (1 mg), the Liver is listed as 0.22 % of the injected dose per org, the Lung is given as 0.079 % of the injected dose per org, the Muscle was 1.1 % of the injected dose per org and the Stomach is listed as 0.090 % of the injected dose per org. Moreover, in data set [3] (1 mg), the Thyroid is recorded as 0.007 % of the injected dose per org. Besides, the “liver uptake with larger administered amounts” value in data set [3] (in words) is “no increase in liver uptake at the expense of skeletal accumulation”.

Source of the values: patent US4910012A, “Products containing Tc-99-m-ωalkylphosphinico-1-hydroxyalkane-1,1-diphosphonates for bone scintigraphy and a process for the preparation of these products” (Hoechst Aktiengesellschaft, priority 1988, dated 1990).
